Source: patent US20080293696A1, “2-Aminoarylcarboxamides Useful as Cancer Chemotherapeutic Agents” (Bayer Pharmaceuticals Corporation, priority 2004, published 2008)

Test system: PAKT/PKB (p-(S473) AKT) in H209 small cell lung carcinoma cells stimulated with Stem Cell Factor
Assay: PAKT/PKB Cytoblot Assay with H209 cells (SCF-stimulated p-(S473) AKT)
Assay type: cell-based
Conditions: Homo sapiens, NCI-H209, compound 1 hour, SCF 25 ng/mL 5 minutes
How it was run: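 H209 SCLC cells kept overnight in RPMI with 0.1% BSA were pretreated 1 h at 37 °C with compound (0.01–10 μM final), then stimulated with SCF 25 ng/mL for 5 min. After formaldehyde/methanol fixation, p-(S473) AKT was detected in-cell with HRP secondary and ECL chemiluminescence, and IC50 was derived.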

[1] = group: between 500 nM and 1 μM (units in value)

Structure (SMILES) | IC50 (group: between 1 and 3 μM) [nM] | IC50 (group: less than 500 nM) [nM] | also measured
CCN(CC)CCCC(C)NC(=O)c1cc(CNc2ccccc2C(=O)Nc2ccc3c(c2)OC(F)(F)O3)ccn1 (stereo not drawn) [Example 108, N-[4-(diethylamino)-1-methylbutyl]-4-{[(2-{[(2,2-difluoro-1,3-benzodioxol-5-yl)amino]carbonyl}phenyl)amino]methyl}pyridine-2-carboxamide] | – | – | IC50 [1]: 500 to 1000 nM
CCCCOCCCNC(=O)c1cc(CNc2ccccc2C(=O)Nc2ccc3c(c2)OC(F)(F)O3)ccn1 [Example 112, N-(3-butoxypropyl)-4-{[(2-{[(2,2difluoro-1,3-benzodioxol-5-yl)amino]carbonyl}phenyl)amino]methyl}pyridine-2-carboxamide] | – | – | IC50 [1]: 500 to 1000 nM
O=C(NCCCN1CCCCCC1)c1cc(CNc2ccccc2C(=O)Nc2ccc3c(c2)OC(F)(F)O3)ccn1 [Example 113, N-(3-azepan-1-ylpropyl)-4-{[(2-{[(2,2-difluoro-1,3-benzodioxol-5-yl)amino]carbonyl}phenyl)amino]methyl}pyridine-2-carboxamide] | – | < 500 | –
CC(CN(C)C)NC(=O)c1cc(CNc2ccccc2C(=O)Nc2ccc3c(c2)OC(F)(F)O3)ccn1 (stereo not drawn) [Example 116, 4-{[(2-{[(2,2-difluoro-1,3-benzodioxol-5-yl)amino]carbonyl}phenyl)amino]methyl}-N-[2-(dimethylamino)-1-methylethyl]pyridine-2-carboxamide] | 1000 to 3000 | – | –
O=C(NC1CCN(Cc2ccccc2)C1)c1cc(CNc2ccccc2C(=O)Nc2ccc3c(c2)OC(F)(F)O3)ccn1 (stereo not drawn) [Example 118, N-(1-benzylpyrrolidin-3-yl)-4-{[(2-{[(2,2-difluoro-1,3-benzodioxol-5-yl)amino]carbonyl}phenyl)amino]methyl}pyridine-2-carboxamide] | 1000 to 3000 | – | –
CC1CCCCN1CCCNC(=O)c1cc(CNc2ccccc2C(=O)Nc2ccc3c(c2)OC(F)(F)O3)ccn1 (stereo not drawn) [Example 119, 4-{[(2-{[(2,2-difluoro-1,3-benzodioxol-5-yl)amino]carbonyl}phenyl)amino]methyl}-N-[3-(2-methylpiperidin-1-yl)propyl]pyridine-2-carboxamide] | – | < 500 | –
CN(C)CC(C)(C)CNC(=O)c1cc(CNc2ccccc2C(=O)Nc2ccc3c(c2)OC(F)(F)O3)ccn1 [Example 121, 4-{[(2-{[(2,2-difluoro-1,3-benzodioxol-5-yl)amino]carbonyl}phenyl)amino]methyl}-N-[3-(dimethylamino)-2,2-dimethylpropyl]pyridine-2-carboxamide] | 1000 to 3000 | – | –
O=C(NCCCN1CCCC1=O)c1cc(CNc2ccccc2C(=O)Nc2ccc3c(c2)OC(F)(F)O3)ccn1 [Example 123, 4-{[(2-{[(2,2-difluoro-1,3-benzodioxol-5-yl)amino]carbonyl}phenyl)amino]methyl}-N-[3-(2-oxopyrrolodin-1-yl)propyl]pyridine-2-carboxamide] | – | < 500 | –
CSCC[C@@H](CO)NC(=O)c1cc(CNc2ccccc2C(=O)Nc2ccc3c(c2)OC(F)(F)O3)ccn1 [Example 127, 4-{[(2-{[(2,2-difluoro-1,3-benzodioxol-5-yl)amino]carbonyl}phenyl)amino]methyl}-N-[(1S)-1-(hydroxymethyl)-3-(methylthio)propyl]pyridine-2-carboxamide] | 1000 to 3000 | – | –
O=C(NCCc1ccc(O)cc1)c1cc(CNc2ccccc2C(=O)Nc2ccc3c(c2)OC(F)(F)O3)ccn1 [Example 129, 4-{[(2-{[(2,2-difluoro-1,3-benzodioxol-5-yl)amino]carbonyl}phenyl)amino]methyl}-N-[2-(4-hydroxyphenyl)ethyl]pyridine-2-carboxamide] | – | – | IC50 [1]: 500 to 1000 nM

Second part, led by results:

IC50 (group: between 1 and 3 μM) [nM] | IC50 (group: less than 500 nM) [nM] | Structure (SMILES) | also measured
1000 to 3000 | – | CC(C)C[C@H](CO)NC(=O)c1cc(CNc2ccccc2C(=O)Nc2ccc3c(c2)OC(F)(F)O3)ccn1 [Example 109, 4-{[(2-{[(2,2-difluoro-1,3-benzodioxol-5-yl)amino]carbonyl}phenyl)amino]methyl}-N-[1-(hydroxymethyl)-3-methylbutyl]pyridine-2-carboxamide] | –
– | < 500 | CCOCCCNC(=O)c1cc(CNc2ccccc2C(=O)Nc2ccc3c(c2)OC(F)(F)O3)ccn1 [Example 110, 4-{[(2-{[(2,2-difluoro-1,3-benzodioxol-5-yl)amino]carbonyl}phenyl)amino]methyl}-N-(3-ethoxypropyl)pyridine-2-carboxamide] | –
– | < 500 | CC(C)OCCCNC(=O)c1cc(CNc2ccccc2C(=O)Nc2ccc3c(c2)OC(F)(F)O3)ccn1 [Example 111, 4-{[(2-{[(2,2-difluoro-1,3-benzodioxol-5-yl)amino]carbonyl}phenyl)amino]methyl}-N-(3-isopropoxypropyl)pyridine-2-carboxamide] | –
– | < 500 | CCCOCCNC(=O)c1cc(CNc2ccccc2C(=O)Nc2ccc3c(c2)OC(F)(F)O3)ccn1 [Example 114, 4-{[(2-{[(2,2-difluoro-1,3-benzodioxol-5-yl)amino]carbonyl}phenyl)amino]methyl}-N-(2-propoxyethyl)pyridine-2-carboxamide] | –
– | < 500 | CN1CCCC1CCNC(=O)c1cc(CNc2ccccc2C(=O)Nc2ccc3c(c2)OC(F)(F)O3)ccn1 (stereo not drawn) [Example 117, 4-{[(2-{[(2,2-difluoro-1,3-benzodioxol-5-yl)amino]carbonyl}phenyl)amino]methyl}-N-[2-(1-methylpyrrolidin-2-yl)ethyl]pyridine-2-carboxamide] | –
– | < 500 | O=C(NCCc1ccccn1)c1cc(CNc2ccccc2C(=O)Nc2ccc3c(c2)OC(F)(F)O3)ccn1 [Example 120, 4-{[(2-{[(2,2-difluoro-1,3-benzodioxol-5-yl)amino]carbonyl}phenyl)amino]methyl}-N-(2-pyridin-2-ylethyl)pyridine-2-carboxamide] | –
1000 to 3000 | – | COc1ccc(CCNC(=O)c2cc(CNc3ccccc3C(=O)Nc3ccc4c(c3)OC(F)(F)O4)ccn2)cc1 [Example 122, 4-{[(2-{[(2,2-difluoro-1,3-benzodioxol-5-yl)amino]carbonyl}phenyl)amino]methyl}-N-[2-(4-methoxyphenyl)ethyl]pyridine-2-carboxamide] | –
– | < 500 | CCCOCCCNC(=O)c1cc(CNc2ccccc2C(=O)Nc2ccc3c(c2)OC(F)(F)O3)ccn1 [Example 124, 4-{[(2-{[(2,2-difluoro-1,3-benzodioxol-5-yl)amino]carbonyl}phenyl)amino]methyl}-N-(3-propoxypropyl)pyridine-2-carboxamide] | –
1000 to 3000 | – | CCOc1ccc(CCNC(=O)c2cc(CNc3ccccc3C(=O)Nc3ccc4c(c3)OC(F)(F)O4)ccn2)cc1OC [Example 125, 4-{[(2-{[(2,2-difluoro-1,3-benzodioxol-5-yl)amino]carbonyl}phenyl)amino]methyl}-N-[2-(4-ethoxy-3-methoxyphenyl)ethyl]pyridine-2-carboxamide] | –
1000 to 3000 | – | CCOc1cc(CCNC(=O)c2cc(CNc3ccccc3C(=O)Nc3ccc4c(c3)OC(F)(F)O4)ccn2)ccc1OC [Example 126, 4-{[(2-{[(2,2-difluoro-1,3-benzodioxol-5-yl)amino]carbonyl}phenyl)amino]methyl}-N-[2-(3-ethoxy-4-methoxyphenyl)ethyl]pyridine-2-carboxamide] | –
1000 to 3000 | – | O=C(NCCc1cccs1)c1cc(CNc2ccccc2C(=O)Nc2ccc3c(c2)OC(F)(F)O3)ccn1 [Example 128, 4-{[(2-{[(2,2-difluoro-1,3-benzodioxol-5-yl)amino]carbonyl}phenyl)amino]methyl}-N-[2-(2-thienyl)ethyl]pyridine-2-carboxamide] | –
